Results on 1 molecule are retold here after patent publication US20140303074A1, “Compositions and Methods For Inhibiting Immunodeficiency Virus Transcription” (The J. David Gladstone Institutes, priority 2011, published 2014).

For one series, the target named is recombinant p300 (Homo sapiens, UniProt Q09472). Put plainly: In vitro HAT assay (histone acetylation, 14C acetyl CoA, autoradiography). Format: biochemical. The conditions noted are these: 1 μg recombinant p300, 10 μg Histone, pre-incubation 30° C. 30 min, densitometry; read-out: IC50 of inhibition of histone acetylation by p300. The procedure: 1 μg of HAT proteins (p300, CBP, pCAF, GCN5) and 10 μg of Histone were pre-incubated with or without sodium salicylate at various doses in an appropriate buffer (50 mM Hepes, pH 8.0, 10% Glycerol, 1 mM dithiothreitol (DTT)) at 30° C. for 30 min. After the pre-incubation period, 0.05 μCi of ^14C labeled acetyl CoA was added; the mixture was incubated for 1 hour. Samples were subjected to sodium dodecyl sulfate-polyacrylamide electrophoresis (SDS-PAGE). After electrophoresis, the gels were dried. Acetylation signals were detected in the dried gels by autoradiography. Band densities were measured by Image™ software (http://rsbweb(dot)nih(dot)gov/ij/); and the relative histone acetylation was plotted.
1 μg of recombinant p300 and 10 μg of Histone were pre-incubated with or without diflunisal at various doses in an appropriated buffer (50 mM Hepes, pH 8.0, 10% Glycerol, 1 mM DTT) at 30° C. for 30 min. 0.05 μCi of ^14C-labeled acetylCoA was then added, and the mixture was incubated for 1 hour. Histones were separated by SDS-PAGE (FIG. 1, bottom panel). Acetylation of Histone H3 and H4 were detected by autoradiography (FIG. 1, middle panel). […] Three different experimental systems were used to test the effect of diflunisal on HIV transcription and replication.

Series [1] concerns p300- and Tat-mediated transactivation of HIV transcription. Put plainly: HIV-1 LTR luciferase reporter assay in Hela cells co-transfected with Tat and p300. Format: cell-based. The procedure: An HIV-1 LTR promoter plasmid linked to a luciferase reporter plasmid, with or without the expression vector for HIV-1 Tat and p300, was transfected into cells. Cells were treated with sodium salicylate at same time of transfection. 36 hours later, the cells were lysed with passive lysis buffer (Promega), and luciferase activity was measured using a luminometer.
The effect of diflunisal on HIV transcription was tested. A plasmid containing HIV-1 driving the luciferase reporter was co-transfected into Hela cells with or without expression vectors encoding Tat and/or p300. Co-transfection of the HIV LTR with either Tat or p300 enhanced LTR activity 4 fold (FIG. 2) and 12 fold (FIG. 2) respectively. Co-expression of both Tat and p300 synergistically activated the HIV promoter 48 fold (FIG. 2). […] The IC50 for this inhibition was 80 μM.
Background: A reporter such as luciferase makes a cellular process visible.

Series [2] relates to VSV-G envelope pseudotyped NL4-3 luciferase reporter viruses. Put plainly: microbe, parasite or virus in culture. The format is cell-based, HIV.
The subject of series [3] is replication-competent NL4-3/GFP virus. Put plainly: HIV replication assay (GFP positive cells by flow cytometry). The format is cell-based. Conditions: activated CD4 T-cells, MOI of 0.3, 50 μM, or 100 μM diflunisal, collected every 2 to 3 days. In general terms: Flow cytometry measures light scatter and fluorescence of single cells or particles in a stream.
The conditions of series [4]: cited from earlier work.
In the next series the test system is Activated CD4 T-cells. Put plainly: Cell toxicity in the HIV replication assay (FIG. 4A). The conditions noted are these: 50 μM, or 100 μM diflunisal.

Sequence of recombinant p300 (Q09472 whole entry, species assumed): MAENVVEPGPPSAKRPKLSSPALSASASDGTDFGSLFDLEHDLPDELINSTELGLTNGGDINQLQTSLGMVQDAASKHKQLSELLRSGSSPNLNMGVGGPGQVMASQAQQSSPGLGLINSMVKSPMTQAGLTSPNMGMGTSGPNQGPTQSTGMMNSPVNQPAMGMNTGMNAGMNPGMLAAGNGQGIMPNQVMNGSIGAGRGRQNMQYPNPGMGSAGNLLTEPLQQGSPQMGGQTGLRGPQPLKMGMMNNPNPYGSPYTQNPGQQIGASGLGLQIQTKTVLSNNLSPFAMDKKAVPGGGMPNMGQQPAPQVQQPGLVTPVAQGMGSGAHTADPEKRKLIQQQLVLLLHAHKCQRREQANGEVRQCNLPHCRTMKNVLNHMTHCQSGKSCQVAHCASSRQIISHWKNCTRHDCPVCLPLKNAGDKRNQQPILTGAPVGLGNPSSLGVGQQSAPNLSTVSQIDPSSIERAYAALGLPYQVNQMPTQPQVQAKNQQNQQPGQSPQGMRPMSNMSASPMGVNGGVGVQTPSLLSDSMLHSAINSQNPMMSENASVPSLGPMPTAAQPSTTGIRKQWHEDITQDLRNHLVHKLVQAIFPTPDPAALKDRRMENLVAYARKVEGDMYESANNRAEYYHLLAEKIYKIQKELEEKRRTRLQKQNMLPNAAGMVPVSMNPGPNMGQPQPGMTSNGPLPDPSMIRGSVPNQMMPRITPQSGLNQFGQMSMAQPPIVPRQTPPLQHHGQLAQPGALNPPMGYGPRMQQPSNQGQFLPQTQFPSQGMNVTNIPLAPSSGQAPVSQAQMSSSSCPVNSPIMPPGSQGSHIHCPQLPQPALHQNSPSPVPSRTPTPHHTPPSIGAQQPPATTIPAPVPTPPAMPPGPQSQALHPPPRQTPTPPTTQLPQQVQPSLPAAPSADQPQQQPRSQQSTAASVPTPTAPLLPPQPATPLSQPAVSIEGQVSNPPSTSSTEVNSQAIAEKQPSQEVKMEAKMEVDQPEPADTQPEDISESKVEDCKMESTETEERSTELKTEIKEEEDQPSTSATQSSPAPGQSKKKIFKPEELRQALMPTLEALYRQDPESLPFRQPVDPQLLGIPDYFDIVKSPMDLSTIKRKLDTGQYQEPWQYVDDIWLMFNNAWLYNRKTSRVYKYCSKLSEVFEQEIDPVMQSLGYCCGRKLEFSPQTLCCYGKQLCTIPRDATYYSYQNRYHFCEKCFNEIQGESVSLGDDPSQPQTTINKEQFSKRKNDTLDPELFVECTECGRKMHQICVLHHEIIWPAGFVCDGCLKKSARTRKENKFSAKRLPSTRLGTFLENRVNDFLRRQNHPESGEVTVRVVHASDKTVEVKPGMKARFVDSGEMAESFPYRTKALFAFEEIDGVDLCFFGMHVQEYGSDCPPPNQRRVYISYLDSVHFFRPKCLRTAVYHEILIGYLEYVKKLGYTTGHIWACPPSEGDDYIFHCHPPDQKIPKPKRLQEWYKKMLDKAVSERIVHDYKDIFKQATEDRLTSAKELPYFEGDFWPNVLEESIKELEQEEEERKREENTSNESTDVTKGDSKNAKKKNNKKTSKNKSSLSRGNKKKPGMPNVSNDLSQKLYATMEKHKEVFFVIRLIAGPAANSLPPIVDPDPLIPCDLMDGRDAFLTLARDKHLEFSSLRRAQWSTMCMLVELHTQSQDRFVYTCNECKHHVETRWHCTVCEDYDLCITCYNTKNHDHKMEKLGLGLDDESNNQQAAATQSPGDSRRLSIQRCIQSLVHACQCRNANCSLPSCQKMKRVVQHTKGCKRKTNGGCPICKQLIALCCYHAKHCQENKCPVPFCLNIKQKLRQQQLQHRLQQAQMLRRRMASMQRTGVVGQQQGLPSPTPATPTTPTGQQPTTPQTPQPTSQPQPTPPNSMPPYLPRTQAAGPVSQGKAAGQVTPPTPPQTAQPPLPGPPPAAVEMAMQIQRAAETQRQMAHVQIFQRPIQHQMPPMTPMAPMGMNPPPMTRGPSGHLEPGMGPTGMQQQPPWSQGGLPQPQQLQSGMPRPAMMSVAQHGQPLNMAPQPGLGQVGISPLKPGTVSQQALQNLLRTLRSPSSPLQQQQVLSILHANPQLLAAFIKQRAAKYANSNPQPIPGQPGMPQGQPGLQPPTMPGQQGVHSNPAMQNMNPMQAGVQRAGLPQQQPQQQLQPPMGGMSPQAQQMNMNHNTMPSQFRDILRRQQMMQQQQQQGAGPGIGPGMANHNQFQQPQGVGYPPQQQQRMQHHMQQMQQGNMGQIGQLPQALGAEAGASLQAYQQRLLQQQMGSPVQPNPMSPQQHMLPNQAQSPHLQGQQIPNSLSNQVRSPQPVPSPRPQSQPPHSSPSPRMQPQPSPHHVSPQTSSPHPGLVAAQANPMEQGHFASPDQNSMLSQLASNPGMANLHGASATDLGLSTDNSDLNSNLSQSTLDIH

The IC50 is the concentration that gives 50% inhibition. Turning to `O=C(O)c1cc(-c2ccc(F)cc2F)ccc1O` [Diflunisal, 2′,4′-difluoro-4-hydroxy-3-biphenylcarboxylic acid], the concentration for half-maximal inhibition (IC50) on recombinant p300 was 1240 µM; in series [1] (Human immunodeficiency virus 1, HeLa, read-out: IC50 for inhibition of p300- and Tat-mediated transactivation of HIV transcription), 80 µM; in series [2] (Human immunodeficiency virus 1, NL43, T-cell, 24 h, read-out: IC50 for inhibition of HIV infection) it was 148 µM. Moreover, the “Block of p300- and Tat-mediated transactivation of HIV transcription” value in series [1] (at 0.3 mM, Hela cells) is on record as “completely blocked”. In addition, the “Inhibition of HIV infection (FIG. 3)” value in series [2] was “inhibited HIV infection in a dose dependent manner”. Further, the “Percentage of infected cells (GFP positive cells), FIG. 4B” value in series [3] was “suppressed and delayed peak of infection in a dose dependent manner”. The Plasma trough concentrations in series [4] (clinical dosage 0.5-1.0 gram per day) was 100 to 300 µM. In addition, in series [4] (in vivo), the Bioavailability was 80-90%. For the same molecule, in series [4] (in vivo), the Half-life is 8 to 12 h. The “Cell toxicity (FIG. 4A)” value with Activated CD4 T-cells was “did not show cell toxicity”.
